Assay results from patent publication US4542021A, “Antitumor compositions for non-injection administration” (Yamasa Shoyu Kabushiki Kaisha, priority 1978, dated 1985).

Tests used:
B16 melanoma = test: Effectiveness against B16 melanoma (oral, 3 times a week); type: in vivo, BDF1 mice; design: Mean survival time (MST ± SE): unit not given here
Experimental: The B16 melanoma cells (1×10^6 cells) were implanted to the right side-abdominal hypoderms of BDF1 mice (male, 18 to 22 g). From the 13th day after the implantation to death the compounds to be tested were administered orally 3 times a week. The compounds to be tested were dissolved in a phosphate-buffered salt solution (PBS) containing 0.5% carboxymethyl-cellulose to a suitable concentration, and given to the mice at a dose rate of 0.1 ml per 10 g of each mouse's body weight. The increases in life span (%ILS) were calculated in accordance with the same formula as described in Test Example 1.

L1210 leukemia = test: Therapeutic test on L1210 leukemia (oral, once a day); type: in vivo, BDF1 mice; settings: Mus musculus, oral, read-out: % ILS (increase in life span); for ILS at 100 mg/kg/day / ILS at 200 mg/kg/day / ILS at 400 mg/kg/day: L1210, 720 h, > means some mice survived the test period (30 days); for ILS at 50 mg/kg/day / ILS at 12.5 mg/kg/day / ILS at 25 mg/kg/day / ILS at 6.25 mg/kg/day: L1210
Experimental: The L1210 leukemic cell suspension (1×10^5 cells/0.2 ml) was implanted intraperitoneally in BDF1 mice (males, 18 to 22 g, females, 16 to 20 g) (7 mice per group). From 24 hours after the implantation to the 5th day thereafter, the predetermined doses of the compounds to be tested were orally administered to the mice consecutively once a day. The compounds to be tested were dissolved or suspended in a phosphate-bufferedsalt solution (PBS) containing 0.5% carboxymethylcellulose, and given at a dose rate of 0.1 ml per 10 g of each mouse's body weight. To a control group, only the same solvent as used for the dissolution of the compounds to be tested was administered in the same way. The mean survival times (MST) for each group were calculated, and the corresponding increase in life span (%ILS) was obtained in accordance with the following formula, the results of which are shown in Table 1. [formula]

[1] = Acute toxicity test, oral (Test Example 5); design: species or system ICR-JCL mice; settings: mouse, in vivo, neutralized ester, male mice, 14th day
Experimental: An ara-CMP ester was neutralized and dissolved in saline containing 0.5% of carboxymethylcellulose, and the resulting solution was orally administered to ICR-JCL mice (males, 24 to 26 g) in a dose of 0.2 ml per 10 g of each mouse's body weight.

[2] = Acute toxicity test, oral (Test Example 4); design: species or system ICR-JCL mice; settings: mouse, in vivo, male mice, observed 7 days, reliability limit 95% in parentheses
Experimental: The C18-ara-CMP ester was dissolved in saline containing 0.5% carboxymethylcellulose, and given orally to ICR-JCL mice (males, 24 to 26 g) at a dose rate of 0.2 ml per 10 g of each mouse's body weight. […] The LD50 value was;

L1210 leukemic cells [3] = test: Experimental tumor proliferation model in the lymph nodes, once a day for 6 days; type: in vivo, BDF1 mice
Experimental: (§1) L1210 leukemic cells (1×10^6 cells/0.05 ml) were implanted to the right inner-thigh hypoderms of BDF1 mice (males, 18 to 22 g). From one day after the transplantation, the compounds to be tested were administered intraperitoneally or orally to the mice once a day consecutively for 6 days. The compounds being tested were dissolved in a phosphate-buffered salt solution (PBS) containing 0.5% carboxymethylcellulose to a suitable concentration, and administered to the mice at a dose rate of 0.1 ml per 10 g of each mouse's body weight. The increases in life span (%ILS) were calculated similarly as in Test Example 1.

[4] = Acute toxicity test, intraperitoneal (Test Example 4); design: species or system ICR-JCL mice; settings: mouse, in vivo; ip, male mice, 7th day; reliability limit 95% in parentheses
Experimental: The C18-ara-CMP ester dissolved in saline was administered intraperitoneally to ICR-JCL mice (males, 24 to 26 g) at a dose rate of 0.2 ml per 10 g of each mouse's body weight. The LD50 value obtained on the 7th day was;

L1210 leukemic cells [5] = test: Experimental tumor proliferation model in the lymph nodes, single administration on sixth day; type: in vivo, BDF1 mice; settings: po, once on sixth day
Experimental: as §1
Furthermore, in a similar manner, each of the test compounds was administered only once on the sixth day after implantation.

[6] = 50 mg/kg, * level of significance at 0.05% or lower

Row | SMILES | ILS at 100 mg/kg/day (L1210 leukemia) [%] | ILS at 200 mg/kg/day (L1210 leukemia) [%] | ILS at 400 mg/kg/day (L1210 leukemia) [%] | ILS at 50 mg/kg/day (L1210 leukemia) [%] | ILS at 12.5 mg/kg/day (L1210 leukemia) [%] | ILS at 25 mg/kg/day (L1210 leukemia) [%] | LD50 at 336 h [1] [mg/kg] | ILS at 6.25 mg/kg/day (L1210 leukemia) [%] | also measured
1 | O=c1[nH]cc(F)c(=O)[nH]1 [5-fluorouracil] | – | – | – | – | – | – | – | – | Increase in life span (% ILS) (B16 melanoma; 25 mg/kg): 0%; Mean survival time (MST ± SE) (B16 melanoma; 25 mg/kg): 22.0 ± 1.45; Mean survival time (MST ± SE) (B16 melanoma; 50 mg/kg): 25.0 ± 2.26; Increase in life span (% ILS) (B16 melanoma; [6]): 14%; Increase in life span (% ILS) (B16 melanoma; 100 mg/kg): -11%; Mean survival time (MST ± SE) (B16 melanoma; 100 mg/kg): 19.6 ± 0.98
2 | CCCCCCCCCCCCCCOP(=O)(O)OC[C@H]1O[C@@H](n2ccc(N)nc2=O)[C@@H](O)[C@@H]1O [C14-ara-CMP ester, ara-CMP-tetradecyl ester] | 88 | 105 | 134 | 62 | – | – | – | – | –
3 | CCCCCCCCCCCCCCCOP(=O)(O)OC[C@H]1O[C@@H](n2ccc(N)nc2=O)[C@@H](O)[C@@H]1O [C15-ara-CMP ester, ara-CMP-pentadecyl ester] | 95 | 135 | – | 70 | – | – | – | – | –
4 | CCCCCCCCCCCCCCCCOP(=O)(O)OC[C@H]1O[C@@H](n2ccc(N)nc2=O)[C@@H](O)[C@@H]1O [C16-ara-CMP ester, ara-CMP-cetyl ester] | 88 | 137 | > 227 | 73 | 19 | 30 | 2190 | – | –
5 | CCCCCCCCCCCCCCCCCOP(=O)(O)OC[C@H]1O[C@@H](n2ccc(N)nc2=O)[C@@H](O)[C@@H]1O [C17-ara-CMP ester, ara-CMP-heptadecyl ester] | 123 | > 154 | -15 | 87 | 32 | 52 | – | 11 | –
6 | CCCCCCCC/C=C\CCCCCCCCOP(=O)(O)OC[C@H]1O[C@@H](n2ccc(N)nc2=O)[C@@H](O)[C@@H]1O [C18-1-ara-CMP ester, ara-CMP-oleyl ester] | 109 | 120 | > 159 | 81 | 39 | 54 | 3750 | 20 | –
7 | CCCCCCCCCCCCCCCCCCOP(=O)(O)OC[C@H]1O[C@@H](n2ccc(N)nc2=O)[C@@H](O)[C@@H]1O [C18-ara-CMP ester, ara-CMP-stearyl ester] | > 200 | 53 | -7 | 114 | 52 | 69 | 1050 | 46 | LD50 at 168 h [2]: 1400 mg/kg; Increase in life span (% ILS) (L1210 leukemic cells [3]; ip, 25 mg/kg/day): 152%; Mean survival time (MST ± SE) (L1210 leukemic cells [3]; ip, 25 mg/kg/day): 17.4 ± 0.40; Increase in life span (% ILS) (L1210 leukemic cells [3]; ip, 50 mg/kg/day): 193%; Mean survival time (MST ± SE) (L1210 leukemic cells [3]; ip, 50 mg/kg/day): 20.2 ± 0.53; Increase in life span (% ILS) (L1210 leukemic cells [3]; po, 50 mg/kg/day): 165%; Mean survival time (MST ± SE) (L1210 leukemic cells [3]; po, 50 mg/kg/day): 18.3 ± 0.62; Increase in life span (% ILS) (L1210 leukemic cells [3]; po, 100 mg/kg/day): 188%; Mean survival time (MST ± SE) (L1210 leukemic cells [3]; po, 100 mg/kg/day): 19.9 ± 0.48; LD50 at 168 h [4]: 137 mg/kg; Mean survival time (MST ± SE) (B16 melanoma; 50 mg/kg): 30.0 ± 1.30; Increase in life span (% ILS) (B16 melanoma; [6]): 36%; Increase in life span (% ILS) (B16 melanoma; 100 mg/kg): 17%; Mean survival time (MST ± SE) (B16 melanoma; 100 mg/kg): 25.8 ± 1.98; Increase in life span (% ILS) (B16 melanoma; 200 mg/kg): 22%; Mean survival time (MST ± SE) (B16 melanoma; 200 mg/kg): 26.8 ± 2.20; Increase in life span (% ILS) (L1210 leukemic cells [5]; 250 mg/kg): 92%; Mean survival time (MST ± SE) (L1210 leukemic cells [5]; 250 mg/kg): 14.0 ± 0.53; Increase in life span (% ILS) (L1210 leukemic cells [5]; 500 mg/kg): 137%; Mean survival time (MST ± SE) (L1210 leukemic cells [5]; 500 mg/kg): 17.3 ± 0.49
